Reference: patent publication US8722929B2, “N-[2-amino-4-(phenylmethoxy)phenyl] amides and related compounds as potassium channel modulators” (Valeant Pharmaceuticals International, priority 2006, dated 2014)
Read-outs that look alike come from different tables or passages of the source.

Biological target: T1, KCNQ 2/3 (Rattus norvegicus, UniProt O88943+O88944)
T1 construct: endogenous in cells; host or cells: PC-12 cells differentiated with NGF
Assay: KCNQ 2/3 activator assay by rubidium (Rb+) efflux from NGF-differentiated PC-12 cells
Assay type: cell-based
Protocol: Compounds of the following formula were assayed as KCNQ 2/3 activators by measuring rhubidium release.
PC-12 cells were grown at 37° C. and 5% CO2 in DMEM/F12 Medium supplemented with 10% horse serum, 5% fetal bovine serum, 2 mM glutamine, 100 U/ml penicillin, 100 U/ml streptomycin. They were plated in poly-D-lysine-coated 96-well cell culture microplates at a density of 40,000 cells/well and differentiated with 100 ng/ml NGF-7s for 2-5 days. For the assay, the medium was aspirated and the cells were washed once with 0.2 ml in wash buffer (25 mM Hepes, pH 7.4, 150 mM NaCl, 1 mM MgCl2, 0.8 mM NaH2PO4, 2 mM CaCl2). The cells were then loaded with 0.2 ml Rb^+ loading buffer (wash buffer plus 5.4 mM […], 5 mM glucose) and incubated at 37° C. for 2 h. Attached cells were quickly washed three times with buffer (same as Rb^+ loading buffer, but containing 5.4 mM KCl instead of RbCl) to remove extracellular Rb^+. Immediately following the wash, 0.2 ml of depolarization buffer (wash buffer plus 15 mM KCl) with or without compounds was added to the cells to activate efflux of potassium ion channels. After incubation for 10 min at room temperature, the supernatant was carefully removed and collected. Cells were lysed by the addition of 0.2 ml of lysis buffer (depolarization buffer plus 0.1% Triton X-100) and the cell lysates were also collected. If collected samples were not immediately analyzed for Rb^+ contents by atomic absorption spectroscopy (see below), they were stored at 4° C. without any negative effects on subsequent Rb^+ analysis.
The concentration of Rb^+ in the supernatants (Rb^+ sup) and cell lysates (Rb^+Lys) was quantified using an ICR8000 flame atomic absorption spectrometer (Aurora Biomed Inc., Vancouver, B.C.) under conditions defined by the manufacturer. One 0.05 ml samples were processed automatically from microtiter plates by dilution with an equal volume of Rb^+ sample analysis buffer and injection into an air-acetylene flame. The amount of Rb^+ in the sample was measured by absorption at 780 nm using a hollow cathode lamp as light source and a PMT detector. A calibration curve covering the range 0-5 mg/L Rb^+ in sample analysis buffer was generated with each set of plates. The percent Rb^+ efflux (F) was defined by F=[Rb^+Sup/(Rb^+Sup+Rb^+Lys)]×100%
The effect (E) of a compound was defined by: E=[(Fc−Fb)/(Fs−Fb)]×100% where the Fc is the efflux in the presence of compound in depolarization buffer, Fb is the efflux in basal buffer, and Fs is the efflux in depolarization buffer, and Fc is the efflux in the presence of compound in depolarization buffer. The effect (E) and compound concentration relationship was plotted to calculate an EC50 value, a compound's concentration for 50% of maximal Rb^+ efflux.

[1] = Rb+ efflux, PC-12 cells, depolarization buffer 15 mM KCl, 10 min, compounds of formula A, read-out: EC50
[2] = Rb+ efflux, PC-12 cells, depolarization buffer 15 mM KCl, 10 min, compounds of formula B, read-out: EC50

SMILES	EC50 [1] [nM]	EC50 [2] [nM]	other results
CCOC(=O)Nc1ccc(NCc2ccc(F)cc2)cc1N [retigabine, N-[2-amino-4-(4-fluorobenzylamino)phenyl]carbamic acid, ethyl ester]			EC50: < 2000 nM; EC50 (Rb+ efflux, PC-12 cells, depolarization buffer 15 mM KCl, 10 min, compounds of formula B): < 2000 nM
CC(C)(C)CC(=O)Nc1ccc(OCc2ccc(F)c(F)c2)cc1N [II, N-(2-amino-4-(3,4-difluorobenzyloxy)phenyl)-3,3-dimethylbutanamide]	< 2000		
CCOC(=O)Nc1ccc(NCc2ccc(F)cc2)nc1N [flupirtine]	< 15000	< 15000	
COC(=O)Nc1ccc(OCc2ccc(F)cc2)cc1N [V, Methyl 2-amino-4-(4-fluorobenzyloxy)phenylcarbamate]		< 15000	
CC(C)(C)CC(=O)Nc1ccc(OCc2ccc(F)cc2)cc1N [I, N-(2-amino-4-(4-fluorobenzyloxy)phenyl)-3,3-dimethylbutanamide]	< 2000		
CC(C)(C)CC(=O)Nc1ccc(OCc2ccc(Cl)s2)cc1N [III, N-(2-amino-4-((5-chlorothiophen-2-yl)methoxy)phenyl)-3,3-dimethylbutanamide]	< 2000		
